# Results reported in patent US9645154B2, “Method for detecting cancer cell” (ARKRAY, Inc., priority 2010, dated 2017).
# Columns and labels:
# Format in all cases: cell-based
# [1] = system: human prostate cancer cells (PC3); test: Labeled sugar incorporation, fluorescence microscopy image analysis (positive rate); details: hemolyzed, 10 mM, 5 min, 23° C., threshold value 880
# Method: (§1) The number of the cells was counted for each cell line using a hemacytometer in accordance with the conventional method, and then 10^5 to 10^6 cells per sample (cell suspension) was aliquoted. Each of the sample was centrifuged to remove the supernatant. Subsequently, 2-NBDG (Wako Pure Chemical Industries, Ltd.; at the final concentration given in Table 3 or 4) dissolved in Dulbecco's PBS (−) was added thereto, and the cells were suspended well. After the reaction, Dulbecco's PBS (−) was added to the mixture, and the resultant was centrifuged to remove the supernatant. The cells were resuspended with Dulbecco's PBS (−) and centrifuged, and the supernatant was removed again. The steps of resuspending cells with Dulbecco's PBS (−), centrifuging and removing the supernatant were then repeated 2 to 3 times, thereby washing the cells thoroughly. The cells were resuspended with Dulbecco's PBS (−), the concentration thereof was adjusted, and then added dropwise to a 384-well plate. The plate was centrifuged to spin down the cells. The image was captured with a fluorescence microscope (Nikon Corp.) using B-2A filter combination (Nikon Corp.). The B-2A set covers the following wavelengths. EX (excitation wavelength): 475±15 nm, DM: 505 nm or longer, BA (fluorescence wavelength) 520 nm or longer.
# (§2) The acquired images were analyzed using an image analysis software NIS-ELEMENTS (trade name, Nikon Corp.) to evaluate the fluorescence intensity of the cell.
# (§3) In a manner similar to Example 2, each of human breast adenocarcinoma cells (cell line name: MCF-7; DS Pharma Biomedical Co., Ltd.), human colon adenocarcinoma cells (cell line name: SW620; DS Pharma Biomedical Co., Ltd.), human prostate cancer cells (cell line name: PC3; DS Pharma Biomedical Co., Ltd.), human alveolar epithelial cancer cells (cell line name: NCI-H358; DS Pharma Biomedical Co., Ltd.), human gastric cancer cells (cell line name: SNU-1; ATCC) and human fibrosarcoma cells (cell line name: HT1080; DS Pharma Biomedical Co., Ltd.) was detected with the labeled sugar (2-NBDG).
# [2] = system: human colon adenocarcinoma cells (SW620); test: as above; details: threshold value 280
# Method: as §1, §2, §3
# [3] = system: human breast adenocarcinoma cells (MCF-7); test: as above; details: hemolyzed, 10 mM, 5 min, 23° C., threshold value 330
# Method: as §1, §2, §3
# [4] = system: human alveolar epithelial cancer cells (NCI-H358); test: as above; details: hemolyzed, 10 mM, 5 min, 23° C., threshold value 370
# Method: as §1, §2, §3
# [5] = system: human fibrosarcoma cell line HT1080; test: as above; details: for Positive rate (Cancer cells): Fibrosarcoma, threshold value 370; for Positive rate of cancer cells: fibrosarcoma cell line
# From the text: In accordance with the conventional method, cultured human fibrosarcoma cell line HT1080 (DS Pharma Biomedical Co., Ltd.) was harvested with trypsin (Invitrogen). The human gastric cancer cell line SNU-1 (ATCC), which is a suspension cell line, was directly harvested without any trypsin treatment. The cell suspension of the harvested cancer cells was centrifuged, and the supernatant was removed. The cells were resuspended with Dulbecco's PBS (−) (Nissui Pharmaceutical Co., Ltd.) and centrifuged, and the supernatant was removed again.
# When performing the hemolyzing treatment, the blood cell fraction collected as described above was hemolyzed using ammonium chloride (STEMCELL Technologies) according to the manufacture's manuals.
# as §1
# The acquired images were analyzed using an image analysis software NIS-ELEMENTS (trade name, Nikon Corp.) to evaluate the fluorescence intensity of the cell. […]
# as §3
# [6] = system: normal human dermal fibroblast cell NHDF; test: Aminolevulinic acid labeling with or without iron ion and reducing agent (degree of false-positive results); details: 0.3 mM, 37° C., 60 min
# From the text: In accordance with the conventional method, human fibrosarcoma cell HT-1080 (DS Pharma Biomedical Co., Ltd.) and normal human dermal fibroblast cell NHDF (Lonza) in culture were harvested with trypsin (Invitrogen). The cell suspension of the harvested cancer cells was centrifuged, and the supernatant was removed. The cells were then resuspended with Dulbecco's PBS (+) (Nissui Pharmaceutical Co., Ltd.) and centrifuged, and the supernatant was removed again.
# The number of the cells was counted using a hemacytometer in accordance with the conventional method, and then 10^5 to 10^6 cells per sample (cell suspension) was aliquoted. The sample was centrifuged to remove the supernatant. In the case an iron ion and a reducing agent were added, 0.3 mM of aminolevulinic acid (trade name: 5-AMINOLEVULINATE HYDROCHLORIDE, Cosmo Bio Co., Ltd.), 0.3 mM of FeCl2 and 0.3 mM of ascorbic acid dissolved in Dulbecco's PBS (+) were added thereto, and the cells were suspended well. In the case an iron ion and a reducing agent were not added, 0.3 mM of aminolevulinic acid dissolved in Dulbecco's PBS (+) was added singly, and the cells were suspended well. Each of the mixture was then allowed to react at 37° C. for 60 minutes. The number of cells was adjusted, and then the cells were added dropwise to a 384-well plate. The plate was centrifuged to spin down the cells.
# The fluorescence filter set: EX (excitation wavelength) 402±7.5, DM 430 or longer, BA (fluorescence wavelength) 625±15.
# [7] = hemolyzed, 10 mM, 5 min, 23° C.
# [8] = single, Glucose conc.: 1 mM, Temp.: 37° C., Time: 30 min
# [9] = Ascorbic acid 0.3 mM, FeC12 0.3 mM
smiles,measurement,setting,value
"O=[N+]([O-])c1ccc(N[C@H]2C(O)O[C@H](CO)[C@@H](O)[C@@H]2O)c2nonc12 (stereo partly drawn) [2-NBDG, 2-[N-(7-nitrobenz-2-oxa-1,3-diazol-4-yl)amino]-2-deoxy-D-glucose]",Positive rate (Cancer cells),[1],69.8%
same,Positive rate (Cancer cells),[2]; [7],100.0%
same,Positive rate (Cancer cells),[2]; [8],100.0%
same,Positive rate (Cancer cells),[3],100.0%
same,Positive rate (Cancer cells),[4],83.0%
same,Positive rate (Cancer cells),[5]; [7],100.0%
same,Positive rate (Cancer cells),[5]; [8],100.0%
same,Positive rate of cancer cells,"[5]; Mean luminance, hemolyzed, 10 mM, 5 min, 23° C., threshold value 436",100.0%
same,Positive rate of cancer cells,"[5]; Total luminance, hemolyzed, 10 mM, 5 min, 23° C., threshold value 35,000",90.7%
same,Positive rate (Fibrosarcoma cell line),[5]; [7],100.0%
same,Positive rate (HT1080 cells),"[5]; hemolyzed, 0.1 mM, 37° C., 30 min, threshold value 380",33.3%
same,Positive rate (HT1080 cells),"[5]; hemolyzed, 1 mM, 37° C., 30 min, threshold value 520",73.1%
same,Positive rate (HT1080 cells),"[5]; hemolyzed, 10 mM, 37° C., 30 min, threshold value 1150",95.0%
same,Positive rate (HT1080 cells),"[5]; hemolyzed, 4° C., 10 mM, 5 min, threshold value 640",79.0%
same,Positive rate (HT1080 cells),"[5]; hemolyzed, 23° C., 10 mM, 5 min, threshold value 640",81.1%
same,Positive rate (HT1080 cells),"[5]; hemolyzed, 37° C., 10 mM, 5 min, threshold value 750",89.4%
same,Positive rate (HT1080 cells),"[5]; hemolyzed, 5 min, 10 mM, 37° C., threshold value 570",119.8%
same,Positive rate (HT1080 cells),"[5]; hemolyzed, 30 min, 10 mM, 37° C., threshold value 880",107.8%
same,Positive rate (HT1080 cells),"[5]; hemolyzed, 60 min, 10 mM, 37° C., threshold value 750",102.9%
same,Positive rate (Fibrosarcoma cell line),"[5]; not hemolyzed, 10 mM, 5 min, 23° C.",92.6%
same,Positive rate (HT1080 cells),"[5]; without hemolyzing treatment, 0.1 mM, 37° C., 30 min, threshold value 280",51.8%
same,Positive rate (HT1080 cells),"[5]; without hemolyzing treatment, 1 mM, 37° C., 30 min, threshold value 330",89.5%
same,Positive rate (HT1080 cells),"[5]; without hemolyzing treatment, 10 mM, 37° C., 30 min, threshold value 450 (concentration series)",90.0%
same,Positive rate (HT1080 cells),"[5]; without hemolyzing treatment, 4° C., 10 mM, 5 min, threshold value 310",94.9%
same,Positive rate (HT1080 cells),"[5]; without hemolyzing treatment, 23° C., 10 mM, 5 min, threshold value 360",92.6%
same,Positive rate (HT1080 cells),"[5]; without hemolyzing treatment, 37° C., 10 mM, 5 min, threshold value 390",101.5%
same,Positive rate (HT1080 cells),"[5]; without hemolyzing treatment, 5 min, 10 mM, 37° C., threshold value 380",92.6%
same,Positive rate (HT1080 cells),"[5]; without hemolyzing treatment, 30 min, 10 mM, 37° C., threshold value 450 (time series)",97.1%
same,Positive rate (HT1080 cells),"[5]; without hemolyzing treatment, 60 min, 10 mM, 37° C., threshold value 500",98.4%
"NCC(=O)CCC(=O)O [aminolevulinic acid, 5-amino-4-oxopentanoic acid]",Negative rate (Normal epithelial cells (NHDF)),"[6]; Ascorbic acid 0, FeC12 0",37.7%
same,Positive rate (Normal epithelial cells (NHDF)),"[6]; Ascorbic acid 0, FeC12 0",62.3%
same,Negative rate (Normal epithelial cells (NHDF)),[6]; [9],85.7%
same,Positive rate (Normal epithelial cells (NHDF)),[6]; [9],14.3%
